One may read the IC50 as the concentration needed to halve the response being measured. A low value points to inhibition by little substance.

What all share (format): biochemical
Common to all, as to settings: procedures of Example 14 (TR-FRET)
In general terms: TR-FRET usually uses a lanthanide donor and a delayed reading to cut background.

The target in one assay is JNK3 (Homo sapiens (Human), UniProt P53779). Kind of assay: JNK3 TR-FRET kinase assay (Example 14). Here is the method: (§1) 14.3. Active JNK 1, 2 and 3 TR-FRET Assay
(§2) (1) Assay buffer #1 with 0.0025% Tween and 1 mM DTT was prepared using JNK buffer stock solution.
(§3) (2) Assay buffer #2 with 0.025% BSA was prepared using the assay buffer #1.
(§4) (3) Test compound solution preparation: 5× compound solution was prepared using assay buffer #1 with 5% DMSO. The compound solution (10 μl/well) was added to a 384-well plate (Corning, Cat No. 3654).
(§5) (4) aJNK1, 2 or 3 preparation: aJNK stock (100 μg/ml) at −80° C. was thawed on ice and an aJNK (1.6 ng/ml) solution was prepared using assay buffer #2. The aJNK solution (20 μl/well) was added to the plate and the plate was shaken. The enzyme was incubated with the compound at RT for 10 min. (5) ATP/substrate solution preparation: ATP and substrate stocks were thawed on ice. 2.5×ATP/substrate (e.g., 25 μM or 2.5 mM ATP/50 nM EPIW-1) was prepared using assay buffer #1. The ATP/substrate (20 μl/well) was added to the plate and the plate was shaken. The plate was incubated at RT for 15 min. Note: In an exemplary assay, the final ATP concentration was about 1 mM. (6) EDTA preparation: 30 mM EDTA was prepared using 0.5M EDTA stock and assay buffer #1. The EDTA (10 μl/well) was added to the plate to quench the enzyme reaction and the plate was shaken well. (7) Detection reagent preparation: Eu-63 and SA-XL stocks were thawed on ice. 4× Eu-63/SA-XL (2 nM Eu-63/9.4 nM SA-XL) was prepared using JNK detection buffer. The Eu-63/SA-XL solution (20 μl/well) was added to the plate and the plate was shaken. The plate was incubated at RT for 1 hr before reading the plate on LJL using ratiometric method named HTRF.
(§6) 14.4. Coupled JNK 1, 2 and 3 TR-FRET Assay
(§7) (1) Assay buffer with 0.0025% Tween, 0.01% BSA, and 1 mM DTT was prepared using JNK buffer stock solution.
(§8) (2) Test compound solution preparation: 5× compound solution, including EDTA background, was prepared using assay buffer with 5% DMSO. The compound solution (10 μl/well) was added to a 384-well plate (Corning, Cat No. 3654).
(§9) (3) uJNK1,2, or 3 activation reaction preparation: uJNK activation solution was prepared using assay buffer (1.6 ng/ml MKK4, 1.6 ng/ml MKK7, 16 ng/ml uJNK, and 20 uM ATP final). The uJNK activation solution (35 μl/well) was added to the plate, the plate was shaken, and the reaction mixture was incubated with compound at 30° C. for 60 min. (4) c-Jun substrate solution preparation: 50 nM EPIW-1, c-Jun peptide, was prepared using assay buffer (15 nM final). The EPIW-1 solution (15 μl/well) was added to the plate, the plate was shaken and incubated at 30° C. for 60 min. (5) EDTA preparation: 30 mM EDTA was prepared using 0.5M EDTA stock and assay buffer. The EDTA (10 μl/well) was added to the plate to quench the enzyme reaction and the plate was shaken well. (6) Detection reagent preparation: Eu-73 and SA-XL stocks were thawed on ice. 4× Eu-73/SA-XL (2 nM Eu-73/9.4 nM SA-XL) were prepared using JNK detection buffer. The Eu-73/SA-XL solution (20 μl/well) was added to the plate. The plate was shaken and incubated at RT for 1 hr before reading the plate on LJL using ratiometric method named HTRF.

The target in the next assay is JNK1 (Homo sapiens (Human), UniProt P45983). In words: JNK1 TR-FRET kinase assay (Example 14). The protocol:
as §1, §2, §3, §4, §5, §6, §7, §8, §9

The next assay addresses JNK2 (Homo sapiens (Human), UniProt P45984). In words: JNK2 TR-FRET kinase assay (Example 14). The protocol:
as §1, §2, §3, §4, §5, §6, §7, §8, §9

Chain of JNK3 (P53779 whole entry, species assumed): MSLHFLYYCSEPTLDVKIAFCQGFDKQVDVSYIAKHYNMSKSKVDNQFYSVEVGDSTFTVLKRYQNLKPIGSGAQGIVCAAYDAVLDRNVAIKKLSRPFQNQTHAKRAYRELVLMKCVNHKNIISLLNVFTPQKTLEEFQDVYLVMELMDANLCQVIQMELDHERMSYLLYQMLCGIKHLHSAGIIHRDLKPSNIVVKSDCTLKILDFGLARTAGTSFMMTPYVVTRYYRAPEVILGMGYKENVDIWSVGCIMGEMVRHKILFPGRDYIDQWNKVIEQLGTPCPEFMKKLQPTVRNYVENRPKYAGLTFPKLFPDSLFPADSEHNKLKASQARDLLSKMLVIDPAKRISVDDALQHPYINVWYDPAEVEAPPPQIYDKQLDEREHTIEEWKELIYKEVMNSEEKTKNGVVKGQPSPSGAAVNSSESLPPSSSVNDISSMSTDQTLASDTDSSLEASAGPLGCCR
Chain of JNK1 (P45983 other isoform, or with tags, fused parts or gaps isoform P45983-2, species assumed): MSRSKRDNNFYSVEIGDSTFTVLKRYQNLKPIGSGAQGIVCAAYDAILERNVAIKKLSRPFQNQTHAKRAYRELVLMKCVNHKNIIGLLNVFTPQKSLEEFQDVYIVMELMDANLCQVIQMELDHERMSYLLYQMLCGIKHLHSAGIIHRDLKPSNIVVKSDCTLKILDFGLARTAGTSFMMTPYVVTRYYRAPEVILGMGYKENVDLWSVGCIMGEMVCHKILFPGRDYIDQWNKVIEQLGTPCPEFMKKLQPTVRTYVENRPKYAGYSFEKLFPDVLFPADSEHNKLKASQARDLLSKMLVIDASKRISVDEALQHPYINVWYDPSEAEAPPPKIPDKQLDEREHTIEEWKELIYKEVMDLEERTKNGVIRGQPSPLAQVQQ
Chain of JNK2 (P45984 whole entry, species assumed): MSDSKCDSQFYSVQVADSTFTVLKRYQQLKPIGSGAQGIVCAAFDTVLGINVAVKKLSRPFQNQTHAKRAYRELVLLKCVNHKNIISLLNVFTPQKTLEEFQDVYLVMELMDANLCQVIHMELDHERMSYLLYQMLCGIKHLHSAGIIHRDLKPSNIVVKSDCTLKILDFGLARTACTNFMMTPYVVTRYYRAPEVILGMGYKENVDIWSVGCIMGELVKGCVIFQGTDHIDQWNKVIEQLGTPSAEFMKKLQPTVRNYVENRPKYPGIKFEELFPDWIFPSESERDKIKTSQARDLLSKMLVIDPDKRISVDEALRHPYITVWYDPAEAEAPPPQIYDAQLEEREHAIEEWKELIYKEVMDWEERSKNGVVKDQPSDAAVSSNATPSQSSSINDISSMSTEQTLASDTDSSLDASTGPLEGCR

Consider `N#Cc1csc(NC(=O)Cc2cccc3ncccc23)c1-c1nnc[nH]1` [N-(4-cyano-3-(4H-1,2,4-triazol-3-yl)thiophen-2-yl)-2-(quinolin-5-yl)acetamide], for which the IC50 against JNK3, at JNK1 and on JNK2 was less than 100 nM each time.
For `Cc1cnc(-c2sccc2NC(=O)Cc2cccc3cnccc23)s1` [2-(isoquinolin-5-yl)-N-(2-(5-methylthiazol-2-yl)thiophen-3-yl)acetamide], the IC50 against JNK3, on JNK1 and on JNK2 was 100 to 10000 nM throughout.
For `O=C(Cn1c(=O)ccn2nc(C(F)(F)F)cc12)Nc1scc(Br)c1-c1ncn[nH]1` [N-(4-bromo-3-(1H-1,2,4-triazol-5-yl)thiophen-2-yl)-2-(5-oxo-2-(trifluoromethyl)pyrazolo[1,5-a]pyrimidin-4(5H)-yl)acetamide], the IC50 at JNK3, at JNK1 and against JNK2 was less than 100 nM in each case.
For `COCn1nnnc1-c1ccsc1NC(=O)Cc1ccc(OC)cc1` [N-(3-(1-(methoxymethyl)-1H-tetrazol-5-yl)thiophen-2-yl)-2-(4-methoxyphenyl)acetamide], the IC50 was 100 to 10000 nM at JNK3, 100 to 10000 nM against JNK1 and greater than 50000 nM at JNK2.
Turning to `Cc1cn2c(CC(=O)Nc3scc(Br)c3-c3ncn[nH]3)csc2n1` [N-(4-bromo-3-(1H-1,2,4-triazol-5-yl)thiophen-2-yl)-2-(6-methylimidazo[2,1-b]thiazol-3-yl)acetamide], the values for the IC50 on JNK3, on JNK1 and against JNK2 were 100 to 10000 nM, less than 100 nM and 100 to 10000 nM, respectively.
Take `O=C(Cn1c(=O)ccc2cc(C(F)(F)F)ccc21)Nc1scc(Br)c1-c1ncn[nH]1` [N-(4-bromo-3-(1H-1,2,4-triazol-5-yl)thiophen-2-yl)-2-(2-oxo-6-(trifluoromethyl)quinolin-1(2H)-yl)acetamide]: the IC50 against JNK3, at JNK1 and on JNK2 was less than 100 nM in each case.
For `CN(C)CCn1cnc(-c2c(Cl)csc2NC(=O)Cn2c(=O)ccc3cc(C(F)(F)F)ccc32)n1` [N-(4-chloro-3-(1-(2-(dimethylamino)ethyl)-1H-1,2,4-triazol-3-yl)thiophen-2-yl)-2-(2-oxo-6-(trifluoromethyl)quinolin-1(2H)-yl)acetamide], the half-inhibitory concentration (IC50) against JNK3, at JNK1 and against JNK2 was less than 100 nM throughout.
As for `O=C(CN1C(=O)CCc2ncccc21)Nc1scc(Cl)c1-c1nc[nH]n1` [N-(4-chloro-3-(1H-1,2,4-triazol-3-yl)thiophen-2-yl)-2-(2-oxo-3,4-dihydro-1,5-naphthyridin-1(2H)-yl)acetamide], the IC50 on JNK3, against JNK1 and at JNK2 was less than 100 nM in each case.
On to `COCn1nnc(-c2ccsc2NC(=O)Cc2ccc(OC)cc2)n1` [N-(3-(2-(methoxymethyl)-2H-tetrazol-5-yl)thiophen-2-yl)-2-(4-methoxyphenyl)acetamide], for which the half-inhibitory concentration (IC50) at JNK3, against JNK1 and against JNK2 was greater than 50000 nM in each case.
Take `O=C(Cc1ccc(F)c2ncccc12)Nc1scc(Br)c1-c1ncn[nH]1` [N-(4-bromo-3-(1H-1,2,4-triazol-5-yl)thiophen-2-yl)-2-(8-fluoroquinolin-5-yl)acetamide]: the 50% inhibitory concentration (IC50) on JNK3 is less than 100 nM; at JNK1, less than 100 nM; against JNK2, 100 to 10000 nM.
With `COc1ccc(CC(=O)Nc2ccsc2-c2c[nH]cn2)cc1` [N-(2-(1H-imidazol-4-yl)thiophen-3-yl)-2-(4-methoxyphenyl)-acetamide], the half-inhibitory concentration (IC50) is greater than 10000 nM against JNK3, greater than 10000 nM at JNK1 and greater than 50000 nM against JNK2.
`O=C(Cc1cccc2ncc(F)cc12)Nc1scc(Br)c1-c1nc[nH]n1` [N-(4-bromo-3-(1H-1,2,4-triazol-3-yl)thiophen-2-yl)-2-(3-fluoroquinolin-5-yl)acetamide]: the IC50 against JNK3, at JNK1 and against JNK2 was less than 100 nM each time.
In the case of `O=C(Cc1cccc2ccncc12)Nc1scc(Br)c1-c1ncn[nH]1` [N-(4-bromo-3-(1H-1,2,4-triazol-5-yl)thiophen-2-yl)-2-(isoquinolin-8-yl)acetamide], the IC50 against JNK3 is less than 100 nM; against JNK1, less than 100 nM; against JNK2 it was 100 to 10000 nM.
For `N#Cc1csc(NC(=O)CN2C(=O)CCc3ncccc32)c1-c1nc[nH]n1` [N-(4-cyano-3-(1H-1,2,4-triazol-3-yl)thiophen-2-yl)-2-(2-oxo-3,4-dihydro-1,5-naphthyridin-1(2H)-yl)acetamide], the IC50 on JNK3, at JNK1 and on JNK2 was less than 100 nM throughout.
Take `O=C(Cc1c(F)ccc2ncccc12)Nc1scc(Br)c1-c1ncn[nH]1` [N-(4-bromo-3-(1H-1,2,4-triazol-5-yl)thiophen-2-yl)-2-(6-fluoroquinolin-5-yl)acetamide]: the IC50 on JNK3, against JNK1 and at JNK2 was less than 100 nM each time.
With `O=C(Cn1c(=O)ccc2ccc(C(F)(F)F)cc21)Nc1scc(Br)c1-c1ncn[nH]1` [N-(4-bromo-3-(1H-1,2,4-triazol-5-yl)thiophen-2-yl)-2-(2-oxo-7-(trifluoromethyl)quinolin-1(2H)-yl)acetamide], the 50% inhibitory concentration (IC50) at JNK3, against JNK1 and against JNK2 was less than 100 nM each time.
As to `O=C(Cc1cc(C(F)(F)F)c2cccnc2c1)Nc1scc(Br)c1-c1nnc[nH]1` [N-(4-bromo-3-(4H-1,2,4-triazol-3-yl)thiophen-2-yl)-2-(5-(trifluoromethyl)quinolin-7-yl)acetamide], the IC50 on JNK3, on JNK1 and against JNK2 was 100 to 10000 nM throughout.
In the case of `N#Cc1csc(NC(=O)Cc2cccc3cnccc23)c1-c1ncn[nH]1` [N-(4-cyano-3-(1H-1,2,4-triazol-5-yl)thiophen-2-yl)-2-(isoquinolin-5-yl)acetamide], the IC50 against JNK3, at JNK1 and at JNK2 was less than 100 nM each time.
As to `O=C(Cc1cccc2cc(F)cnc12)Nc1scc(Br)c1-c1nc[nH]n1` [N-(4-bromo-3-(1H-1,2,4-triazol-3-yl)thiophen-2-yl)-2-(3-fluoroquinolin-8-yl)acetamide], the 50% inhibitory concentration (IC50) at JNK3 was 100 to 10000 nM; at JNK1, less than 100 nM; against JNK2, 100 to 10000 nM.
For `COc1ccc(CC(=O)Nc2ccsc2-c2nc(-c3ccncc3)n[nH]2)cc1` [2-(4-methoxyphenyl)-N-(2-(3-(pyridin-4-yl)-1H-1,2,4-triazol-5-yl)thiophen-3-yl)acetamide], the IC50 is greater than 10000 nM against JNK3, 100 to 10000 nM against JNK1 and greater than 50000 nM at JNK2.
On the same counts, the results for `COc1ccc(CC(=O)Nc2ccsc2-c2cnccn2)cc1` [2-(4-methoxyphenyl)-N-(2-(pyrazin-2-yl)thiophen-3-yl)acetamide] are 100 to 10000 nM, 100 to 10000 nM and 100 to 10000 nM.
The like results for `N#Cc1ccc2c(ccc(=O)n2CC(=O)Nc2scc(Br)c2-c2ncn[nH]2)c1` [N-(4-bromo-3-(1H-1,2,4-triazol-5-yl)thiophen-2-yl)-2-(6-cyano-2-oxoquinolin-1(2H)-yl)acetamide] were, in that order, less than 100 nM, less than 100 nM and less than 100 nM.
On the same counts, the results for `O=C(Cn1c(=O)ccc2cc(C(F)(F)F)ccc21)Nc1scc(Cl)c1-c1ncn(CCCN2CCCC2)n1` [N-(4-chloro-3-(1-(3-(pyrrolidin-1-yl)propyl)-1H-1,2,4-triazol-3-yl)thiophen-2-yl)-2-(2-oxo-6-(trifluoromethyl)quinolin-1(2H)-yl)acetamide] are less than 100 nM, less than 100 nM and less than 100 nM.

The record behind these values is patent US9796706B2, “Inhibitors of Jun N-terminal kinase” (IMAGO PHARMACEUTICALS, INC., priority 2009, dated 2017).
